Earlier results as cited in US20240044899A1, “BIOMARKERS FOR FIMEPINOSTAT THERAPY” (Curis, Inc, priority 2021, published 2024).
Where two headings read alike, the source gives them in different places.

System: MYC-altered DLBCL/HGBL patients
Conditions: Prospective phase 2, cited from earlier work

Molecule: Tisagenlecleucel
- CRR (DHL, sample size 16): 25%
- ORR (DHL, sample size 16): 50%/

Molecule: O=C(/C=C\n1cnc(-c2cc(C(F)(F)F)cc(C(F)(F)F)c2)n1)NNc1cnccn1 [Selinexor, reference compound]
- ORR (MYC IHC >40%, sample size 47): 13%
